Assay results reported in patent publication US7491827B2, “Aryl sulfonamides useful as inhibitors of chemokine receptor activity” (Millennium Pharmaceuticals, Inc., priority 2003, dated 2009).

Target: T1, cloned human CCR8 receptor stably expressed in L1.2 cells (Homo sapiens, UniProt P51685)
T1 construct: expressed in transfected cells
Assay: whole cell binding screen: inhibition of biotinylated human I309 binding to CCR8 (FMAT 8100 HTS)
Settings: L1.2/hCCR8 cells, biotinylated human I-309, 10 point concentration response starting at 10 μM; read-out: Ki of compounds to inhibit I-309 binding to CCR8
Excerpt: This whole cell binding screen evaluates the ability of compounds to inhibit biotinlyated human I309 binding to the cloned human CCR8 receptor stably expressed in L1.2 cells. Human CCR8 gene was amplified by PCR using PFU polymerase under standard conditions from human genomic DNA purchased from Stratagene. The PCR primers used were:
The 5′ and 3′ primers contained flanking enzyme sites (Bam Hi and Not 1,respectively), which were used to subclone the gene into pcDNA3.1. […] The CCR8 vector was then transfected into L1.2 cells (murine pre-B cells) by electroporation.
Compounds were screened using the FMAT™ 8100 HTS System (purchased from Applied Biosystems).
A suspension was prepared of L1.2/hCCR8 cells at 4.0×10^5 cells/mL in a binding buffer (Buffer consisting of Hanks Balanced Salt Solution (without phenol red), 10 mM HEPES, 0.1% Fatty Acid Free BSA, 0.02% Sodium Azide).
Dilution series of 10 mM stock concentrations of the test compounds were prepared in DMSO and further diluted into binding buffer defined above) to three times the final assay concentration.
10 point concentration response curve is constructed for each compound, starting at 10 μM (final assay concentration in Binding Buffer). […] The components were mixed in wells by covering the plate with aluminum foil and rotating for 0.5 hours. […] Average fluorescence reported for each concentration was normalized to percent inhibition based on negative (no inhibitor) and positive (100 nM excess unlabeled I309 (R and D Systems)) controls.

T1 sequence (P51685 whole entry): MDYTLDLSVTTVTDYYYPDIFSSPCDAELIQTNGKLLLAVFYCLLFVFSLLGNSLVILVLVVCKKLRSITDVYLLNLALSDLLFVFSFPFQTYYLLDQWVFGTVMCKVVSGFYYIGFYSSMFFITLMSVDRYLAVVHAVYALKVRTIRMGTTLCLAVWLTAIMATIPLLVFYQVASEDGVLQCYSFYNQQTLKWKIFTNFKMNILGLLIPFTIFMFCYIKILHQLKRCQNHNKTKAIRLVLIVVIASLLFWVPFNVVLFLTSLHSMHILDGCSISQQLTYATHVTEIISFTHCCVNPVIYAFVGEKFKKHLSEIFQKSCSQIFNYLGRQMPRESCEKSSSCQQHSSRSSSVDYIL

Row | Ki | Structure (SMILES)
1 | < 500 nM | Cc1ccccc1C(=O)Nc1ccc(S(=O)(=O)N[C@H]2CCN(C(=O)OC(C)C)C[C@@H]2C)c2ccccc12 (racemic) [Compound C-18, (±)-trans-3-methyl-4-[4-(2-methyl-benzoylalino)-naphthalene-1-sulfonylamino]-piperidine-1-carboxylic acid isopropyl ester]
2 | < 500 nM | CCCC(=O)N1CC[C@H](NS(=O)(=O)c2ccc(NC(=O)c3ccccc3C)c3ccccc23)[C@@H](C)C1 (racemic) [Compound C-19, (±)-trans-N-[4-(1-Butyryl-3-methyl-piperidin-4-ylsulfamoyl)-naphthalen-1-yl]-2-methyl-benzamide]
3 | < 500 nM | CCOC(=O)N1CCC(NS(=O)(=O)c2ccc(NC(=O)c3ccccc3C)c3ccccc23)C(C)(C)C1 (racemic) [Compound C-20, (±)-3,3-Dimethyl-4-[4-(2-methyl-benzoylamino)-naphthalene-1-sulfonylamino]-piperidine-1-carboxylic acid ethyl ester]
4 | < 500 nM | CCNC(=O)N1CCC(NS(=O)(=O)c2ccc(NC(=O)c3ccccc3C)c3ccccc23)C(C)(C)C1 (racemic) [Compound C-21, (±)-3,3-Dimethyl-4-[4-(2-methyl-benzoylamino)-naphthalene-1-sulfonylamino]-piperidine-1-carboxylic acid ethylamide]
5 | < 500 nM | Cc1ccccc1C(=O)Nc1ccc(S(=O)(=O)NC2CCN(C(=O)OC(C)C)CC2(C)C)c2ccccc12 (racemic) [Compound C-22, (±)-3,3-Dimethyl-4-[4-(2-methyl-benzoylamino)-naphthalene-1-sulfonylamino]-piperidine-1-carboxylic acid isopropyl ester]
6 | < 30000 nM | CCCC(=O)N1CCC(NS(=O)(=O)c2ccc(NC(=O)c3ccccc3C)c3ccccc23)C(C)(C)C1 (racemic) [Compound C-23, (±)-N-[4-(1-Butyryl-3,3-dimethyl-piperidin-4-ylsulfamoyl)-naphthalen-1-yl]-2-methyl-benzamide]
7 | < 1000 nM | Cc1ccccc1C(=O)Nc1ccc(S(=O)(=O)N[C@H]2CCNC[C@H]2C)c2ccccc12 (racemic) [Compound C-28, (±)-cis-2-Methyl-N-[4-(3-methyl-piperidin-4-ylsulfamoyl)-naphthalen-1-yl]-benzamide]
8 | < 500 nM | Cc1ccccc1C(=O)Nc1ccc(S(=O)(=O)N[C@H]2CCN(C(=O)N(C)C)C[C@H]2C)c2ccccc12 (racemic) [Compound C-29, (±)-cis-3-Methyl-4-[4-(2-methyl-benzoylandno)-naphthalene-1-sulfonylamio]-piperidine-1-carboxylic acid dimethylamide]
9 | < 500 nM | CC(=O)N1CC[C@H](NS(=O)(=O)c2ccc(NC(=O)c3ccccc3C)c3ccccc23)[C@H](C)C1 (racemic) [Compound C-30, (±)-cis-N-[4-(1-Acetl-3-methyl-piperidin-4-ylsulfamoyl)-naphthalen-1-yl]-2-methyl-benzamide]
10 | < 500 nM | CC(=O)N1CC[C@H](NS(=O)(=O)c2ccc(NC(=O)c3ccccc3C)c3ccccc23)[C@@H](C)C1 (racemic) [Compound C-31, (±)-(trans)-N-[4-(1-Acetyl-3-methyl-piperidin-4-ylsulfamoyl)-naphthalen-1-yl]-2-methyl-benzamide]
11 | < 1000 nM | CCC(C)N1CCC(NS(=O)(=O)c2ccc(NC(=O)c3ccccc3C)c3ccccc23)CC1 (racemic) [Compound C-32, (±)-N-[4-(1-sec-Butyl-piperidin-4-ylsulfamoyl)-naphthalen-1-yl]-2-methyl-benzamide]
12 | < 500 nM | Cc1ccccc1C(=O)Nc1ccc(S(=O)(=O)NC2CCNC2)c2ccccc12 (racemic) [Compound C-48, (±)-2-Methyl-N-[4-(pyrrolidin-3-ylsulfamoyl)-naphthalen-1-yl]-benzamide]
13 | < 500 nM | CCNC(=O)N1CCC(NS(=O)(=O)c2ccc(NC(=O)c3ccccc3C)c3ccccc23)C1 (racemic) [Compound C-52, (±)-3-[4-(2-Methyl-benzoylamino)-naphthalene-1-sulfonylamino]-pyrrolidine-1-carboxylic acid ethylamide]
14 | < 500 nM | Cc1ccccc1C(=O)Nc1ccc(S(=O)(=O)NC2[C@@H](C)CNC[C@@H]2C)c2ccccc12 (racemic) [Compound C-64, (±)-(cistrans)-N-[4-(3,5-Dimethyl-piperidin-4-ylsulfamoyl)-naphthalen-1-yl]-2-methyl-benzamide]
15 | < 500 nM | Cc1ccccc1C(=O)Nc1ccc(S(=O)(=O)NC2[C@@H](C)CN(C(=O)N(C)C)C[C@@H]2C)c2ccccc12 (racemic) [Compound C-65, (±)-(cisstrans)-3,5-Dimethyl-4-[4-(2-methyl-benzoylamino)-naphthalene-1-sulfonylainno]-piperidine-1-carboxylic acid dimethylamide]
16 | < 500 nM | CCCC(=O)N1C[C@H](C)C(NS(=O)(=O)c2ccc(NC(=O)c3ccccc3C)c3ccccc23)[C@@H](C)C1 (racemic) [Compound C-66, (±)-(cistrans)-N-[4-(1-Butyryl-3,5-dimethyl-piperidin-4-ylsulfamoyl)-naphthalen-1-yl]-2-methyl-benzamide]
17 | < 500 nM | CCOC(=O)N1C[C@H](C)C(NS(=O)(=O)c2ccc(NC(=O)c3ccccc3C)c3ccccc23)[C@@H](C)C1 (racemic) [Compound C-67, (±)-(cistrans)-3,5-Dimethyl-4-[4-(2-methyl-benzoylamino)-naphthalene-1-sulfonylamino]-piperidine-1-carboxylic acid ethyl ester]
18 | < 30000 nM | C[C@@H]1CNCC[C@@H]1NS(=O)(=O)c1ccc(N2C(=O)c3ccccc3C2=O)c2ccccc12 (racemic) [Compound C-74, (±)-(cis)-4-(1,3-Dioxo-1,3-dihydro-isoindol-2-yl)-naphthalene-1-sulfonic acid (3-methyl-piperidin-4-yl)-amide]
19 | < 500 nM | CCCC(=O)N1CC[C@H](NS(=O)(=O)c2ccc(N3C(=O)c4ccccc4C3=O)c3ccccc23)[C@H](C)C1 (racemic) [Compound C-75, (±)-(cis)-4-(1,3-Dioxo-1,3-dihydro-isoindol-2-yl)-naphthalene-1-sulfonic acid (1-butyryl-3-methyl-piperidin-4-yl)-amide]
20 | < 500 nM | CCCC(=O)N1CC[C@H](NS(=O)(=O)c2ccc(NC(=O)c3ccccc3C)c3ccccc23)[C@@H](CO)C1 (racemic) [Compound C-76, (±)-(trans)-N-[4-(1-butyryl-3-hydroxymethyl-piperidin-4-ylsulfamoyl)-naphthalen-1-yl]-2-methyl-benzamide]
21 | < 30000 nM | CCOC(=O)[C@@H]1CNCC[C@@H]1NS(=O)(=O)c1ccc(NC(=O)c2ccccc2C)c2ccccc12 (racemic) [Compound C-77, (±)-(cis)-4-[4-(2-Methyl-benzoylamino)-naphthalene-1-sulfonylamino]-piperidine-3-carboxylic acid ethyl ester]
22 | < 30000 nM | CCCC(=O)N1CC[C@H](NS(=O)(=O)c2ccc(NC(=O)c3ccccc3C)c3ccccc23)[C@H](C(=O)O)C1 (racemic) [Compound C-78, (±)-(cis)-1-Butyryl-4-[4-(2-methyl-benzoylamino)-naphthalene-1-sulfonylamino]-piperidine-3-carboxylic acid]
23 | < 30000 nM | CCOC(=O)[C@H]1CN(C(=O)OCC)CC[C@@H]1NS(=O)(=O)c1ccc(NC(=O)c2ccccc2C)c2ccccc12 (racemic) [Compound C-79, (±)-(trans)-4-[4-(2-Methyl-benzoylamino)-naphthalene-1-sulfonylamino]-piperidine-1,3-dicarboxylic acid diethyl ester]
24 | < 500 nM | CCCC(=O)N1CC[C@H](NS(=O)(=O)c2ccc(NC(=O)c3ccccc3C)c3ccccc23)[C@H](CO)C1 (racemic) [Compound C-80, (±)-(cis)-N-[4-(1-Butryl-3-hydroxymethyl-piperidin-4-ylsulfamoyl)-naphthalen-1-yl]-2-methyl-benzamide]
25 | < 500 nM | CCOC(=O)N1CC[C@H](NS(=O)(=O)c2ccc(NC(=O)c3ccccc3C)c3ccccc23)[C@H](CO)C1 (racemic) [Compound C-81, (±)-(cis)-3—Hydroxymethyl-4-[4-(2-methyl-benzoylamino)-naphthalene-1-sulfonylamino]-piperidine-1-carboxylic acid ethyl ester]
26 | < 500 nM | CCOC(=O)N1CC[C@H](NS(=O)(=O)c2ccc(NC(=O)c3ccccc3C)c3ccccc23)[C@@H](CO)C1 (racemic) [Compound C-82, (±)-(trans)-3—Hydroxymethyl-4-[4-(2-methyl-benzoylamino)-naphthalene-1-sulfonylamino]-piperidine-1-carboxylic acid ethyl ester]
27 | < 1000 nM | Cc1ccccc1C(=O)Nc1ccc(S(=O)(=O)NC2CCCNC2)c2ccccc12 (racemic) [Compound C-112, (±)-2-Methyl-N-[4-(piperidin-3-ylsulfamoyl)-naphthalen-1-yl]-benzamide]
28 | < 500 nM | CCNC(=O)N1CCCC(NS(=O)(=O)c2ccc(NC(=O)c3ccccc3C)c3ccccc23)C1 (racemic) [Compound C-113, (±)-3-[4-(2-Methyl-benzoylangno)-naphthalene-1-sulfonylamino]-piperidine-1-carboxylic acid ethylamide]
